Experimental data from article PMC11714206, “Massively Parallel Screening of Toll/Interleukin‐1 Receptor (TIR)‐Derived Peptides Reveals Multiple Toll‐Like Receptors (TLRs)‐Targeting Immunomodulatory Peptides” (Advanced Science, 2024).
Each block holds one sequence with its values, some of them ahead of it.

Molecular target: T1, MyD88^TIR (Homo sapiens, UniProt Q99836)
T1 construct: MyD88 (residues 148–296); 6xHis; made in house; host or cells: E. coli BL21 (DE3)
Test: T‐Surf phage library (P8 and P3) selection against MyD88^TIR, four rounds, NGS read counts
Format: binding
Conditions: for Population: 4th round of selection against MyD88 TIR, share of NGS reads; for P8_MyD88 Rank (after) / P8_MyD88 Rank (before): P8 library; for P3_MyD88 Rank (after) / P3_MyD88 Rank (before): P3 library
In short: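 Coat TIR domain 5 µg mL^−1 overnight; block 0.2% BSA/PBS 1 h, 4 °C; add phage library 1 h, RT; wash ×4 PBS/0.5% Tween‐20; elute 100 mM HCl, neutralize Tris; amplify in TG1, PEG‐precipitate. Repeat to round 4; barcode PCR, NovaSeq, count reads.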

[1] = P3_MyD88 pool: P3 T-Surf phage library
[2] = selection against MyD88, rank after grouping
[3] = selection against MyD88, rank before grouping
[4] = 4R selection against MyD88, rank after grouping
[5] = 4R selection against MyD88, rank before grouping
[6] = P3_MyD88: rank by count after grouping
[7] = P3_MyD88: rank by count before grouping
[8] = selection against MyD88, rank by count after grouping
[9] = selection against MyD88, rank by count before grouping
[10] = P8_MyD88: rank by count after grouping
[11] = P8_MyD88: rank by count before grouping
[12] = selection against MyD88 TIR, rank by count after grouping
[13] = selection against MyD88 TIR, rank by count before grouping
[14] = P8_MyD88: rank by NGS read count after grouping
[15] = P8_MyD88: rank by NGS read count before grouping
[16] = P8_MyD88 pool: P8 T-Surf phage library

T1 sequence (Q99836 148-296): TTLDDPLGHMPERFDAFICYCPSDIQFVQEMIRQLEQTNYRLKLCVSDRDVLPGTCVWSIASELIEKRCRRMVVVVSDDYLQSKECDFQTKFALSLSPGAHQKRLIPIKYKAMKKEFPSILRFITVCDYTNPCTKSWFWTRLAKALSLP

- Population [1]: 0.00378%
Sequence: LKVESWRQALKERLP

- P8_MyD88 Rank (after) [2]: 548
- P8_MyD88 Rank (before) [3]: 3225
Sequence: LGYRLMFWDYFVGIVD

- P8_MyD88 Rank (after) [4]: 597
- P8_MyD88 Rank (before) [5]: 3635
Sequence: IDDDHLTYLVRLLLS

- Rank (after) [6]: 406
- Rank (before) [7]: 1414
Sequence: WFWDKLKYALHRNRI

- P8_MyD88 Rank (after) [2]: 492
- P8_MyD88 Rank (before) [3]: 3834
Sequence: NYGSNSWALNKLLEIL

- P3_MyD88 Rank (after) [8]: 733
- P3_MyD88 Rank (before) [9]: 2336
Sequence: LQNQWELALTKKTKLV

- Rank (after) [10]: 461
- Rank (before) [11]: 2817
Sequence: DPQDLDWCYERLVSRC

- P8_MyD88 Rank (after) [8]: 767
- P8_MyD88 Rank (before) [9]: 3249
Sequence: LGYHWIDLGYFVGIED

- P3_MyD88 Rank (after) [12]: 205
- P3_MyD88 Rank (before) [13]: 3381
Sequence: NGHENEIIKEIVETIV

- P8_MyD88 Rank (after) [2]: 530
- P8_MyD88 Rank (before) [3]: 2783
Sequence: DPQDLDWFYERLEPV

- P8_MyD88 Rank (after) [8]: 758
- P8_MyD88 Rank (before) [9]: 1570
Sequence: WDFSGNIEQFWDRLYY

- P3_MyD88 Rank (after) [8]: 679
- P3_MyD88 Rank (before) [9]: 2807
Sequence: HQLSVDIQGYALKAGV

- Rank (after) [10]: 389
- Rank (before) [11]: 1902
Sequence: YASSSWALNELPRILY

- P8_MyD88 Rank (after) [12]: 258
- P8_MyD88 Rank (before) [13]: 429
Sequence: WALNELLEIMQAKRDL

- P8_MyD88 Rank (after) [4]: 617
- P8_MyD88 Rank (before) [5]: 3328
Sequence: LGYQGIDGEYFVGIED

- P3_MyD88 Rank (after) [8]: 713
- P3_MyD88 Rank (before) [9]: 3606
Sequence: KEVEVWRDALTKVVGL

- P3_MyD88 Rank (after) [12]: 246
- P3_MyD88 Rank (before) [13]: 1438
Sequence: YYLDTSHHRKQSGEFG

- P3_MyD88 Rank (after) [2]: 535
- P3_MyD88 Rank (before) [3]: 3557
Sequence: NSFREGLWRLVELSKK

- Rank (after) [10]: 460
- Rank (before) [11]: 2253
Sequence: VQWEDPWFWDKLAYEM

- P8_MyD88 Rank (after) [4]: 657
- P8_MyD88 Rank (before) [5]: 2618
Sequence: DPRDLAWFYEVLLSRF

- Rank (after) [6]: 112
- Rank (before) [7]: 995
Sequence: EWIREQLRPALKERL

- P3_MyD88 Rank (after) [4]: 606
- P3_MyD88 Rank (before) [5]: 3460
Sequence: NHDLDLPRGKAIKPEILG

- Rank (after) [10]: 462
- Rank (before) [11]: 3223
Sequence: LGYRWLDGEYFGGIED

- P3_MyD88 Rank (after) [4]: 617
- P3_MyD88 Rank (before) [5]: 3650
Sequence: KEVEGWRNALTNVASL

- Rank (after) [10]: 471
- Rank (before) [11]: 2786
Sequence: DPQDLDWFYERLLS

- P8_MyD88 Rank (after) [2]: 523
- P8_MyD88 Rank (before) [3]: 3329
Sequence: LGYHWFDWVYFVGIED

- Rank (after) [14]: 1014
- Rank (before) [15]: 1625
Sequence: WDFASNMEQLWERLYY

- P8_MyD88 Rank (after) [8]: 756
- P8_MyD88 Rank (before) [9]: 3321
Sequence: LGYQWIDWEFFVGIED

- Rank (after) [6]: 163
- Rank (before) [7]: 967
Sequence: DSHESEIIKEIVDTIV

- Population [16]: 0.0177%
Sequence: ELDFSHFWLFDGHATGEA

- P8_MyD88 Rank (after) [8]: 751
- P8_MyD88 Rank (before) [9]: 3445
Sequence: PQDLEWFYERGEPDS

- Rank (after) [14]: 1010
- Rank (before) [15]: 3025
Sequence: DPQLLVCFYERVVRMF

- Population [16]: 0.00617%
Sequence: WALNELLQILHARELF

- P8_MyD88 Rank (after) [8]: 744
- P8_MyD88 Rank (before) [9]: 3227
Sequence: LGYHLIVWEYFVGIED

- P8_MyD88 Rank (after) [12]: 234
- P8_MyD88 Rank (before) [13]: 371
Sequence: FRGEDIADNFLSHLVVAL

- Rank (after) [6]: 148
- Rank (before) [7]: 800
Sequence: KNLFNELVHVWSSKANSLVG

- P3_MyD88 Rank (after) [8]: 721
- P3_MyD88 Rank (before) [9]: 3494
Sequence: NQWRNALTAAAHLTGW

- Rank (after) [14]: 947
- Rank (before) [15]: 2269
Sequence: VTSSWALEELRHIMEL

- Rank (after) [10]: 397
- Rank (before) [11]: 3541
Sequence: HWIEWEYFVGIEEHIK

- Rank (after) [6]: 475
- Rank (before) [7]: 2066
Sequence: DQHLDLPRGKAIKPELLG

- P8_MyD88 Rank (after) [2]: 563
- P8_MyD88 Rank (before) [3]: 2191
Sequence: VANILGYHWMDWVYFV

- Rank (after) [6]: 448
- Rank (before) [7]: 1482
Sequence: YAFTVHLHRYLVQRGG

- Population [1]: 0.00262%
Sequence: YGHESEIIKEIVDTIV

- Rank (after) [14]: 975
- Rank (before) [15]: 3651
Sequence: IDDHHLTFLVSLLLSL

- Rank (after) [10]: 428
- Rank (before) [11]: 2840
Sequence: DPQDLDRFYERLLSLL

- Rank (after) [10]: 423
- Rank (before) [11]: 2956
Sequence: DPQDRDWIYERLVSLF

- Rank (after) [10]: 96
- Rank (before) [11]: 102
- Population [16]: 0.0227%
Sequence: PQDLEWFYERLFSQM

- P3_MyD88 Rank (after) [12]: 245
- P3_MyD88 Rank (before) [13]: 2038
Sequence: DHHLDLPRGKEIKPELLG

- Rank (after) [6]: 387
- Rank (before) [7]: 2800
Sequence: HLRKEFDKRLITSFKD

- P3_MyD88 Rank (after) [12]: 218
- P3_MyD88 Rank (before) [13]: 1121
Sequence: PEKDNGGENALSITL
